# Test results published in patent US20120093947A1, “METHOD OF TREATING REACTIVE AIRWAY DISEASE” (UNITED STATES DEPARTMENT OF VETERANS AFFAIRS, priority 2009, published 2012).
# What was measured:
# LPO = molecular target: T1, LPO (Bos taurus, UniProt P80025); assay: Nitration of salbutamol by LPO/H2O2/NO2−, A410; type: biochemical, bovine; conditions: for Nitrophenols, (%) LPO: […] NaNO2, 4 mM H2O2, 65 nM LPO, pH 7.0, 10 min, ΔA410 versus control
# T1 construct: Lactoperoxidase (LPO) from bovine milk (EC 1.11.1.7); purchased Sigma-Aldrich Co. (St. Louis, Mo.); host or cells: bovine milk (natural source)
# Description: (§1) Spectrophotometric Measurements. Spectra are measured using an Agilent diode array spectrophotometer model 8453 (Agilent Technologies, Inc., Santa Clara, Calif.). Nitration of salbutamol is studied by measuring absorption spectra at designated time points following the start of the reaction. Samples are prepared in 100 mM phosphate buffers (pH 7.0). All buffers contained DTPA (100 μM) or are pretreated with Chelex-100 before use, and measurements are performed at ambient temperature of 20° C. Typically, the reaction is started by the addition of a small aliquot of H2O2 or the desired peroxidase. Time course measurements are carried out following changes in absorbance at 410 nm in 30 second intervals versus absorbance at 800 nm, where none of the compounds absorb.
# Ascorbate (AscH^−) is an effective natural antioxidant protecting airways from oxidative injury. Cross et al., (1994) Environ. Health Perspect. 102 (suppl. 10):185-191. Its concentration in the respiratory tract lining fluid is estimated to be near 100 μM (Id.). We examine the effect of AscH^− on nitration of 100 μM salbutamol by 67 nM LPO, 4 mM H2O2, and 3.5 mM of NaNO2 by measuring absorption at 410 nm. […] The duration of the lag period depends on AscH^− concentration. […] See, e.g., Reszka et al. (1999) Free Radic. Biol. & Med. 26:669-678.
# As noted earlier, methimazole is an antithyroid drug, an effective inhibitor of LPO activity. 100 μM of salbutamol is reacted with 73 nM LPO, 3.5 mM NaNO2, and 4 mM H2O2 at pH buffer 7.0 in the presence of 0, 27, 55, and 109 μM methimazole (shown in FIG. 9, section A, traces a-d, respectively). Traces c and d also indicate by arrow when additional LPO is added to the system. […] In contrast to effects exerted by AscH^− or SCN^−, methimazole-dependent inhibition is permanent and is probably due to inactivation of the enzyme, since a second dose of LPO reactivates the process (FIG. 9, section A, trace c).
# Dapsone, an anti-inflammatory and anti-leprotic agent, is a potent inhibitor of LPO and MPO. See, e.g., Kettle et al. (1991) Biochem. Pharmacol. 41(10):1485-1492; Bozeman et al. (1992) Biochem. Pharmacol. 44(2):553-563. 97 μM of salbutamol is reacted with 65 nM LPO, 3.4 mM NaNO2, and 4 mM H2O2 at pH buffer 7.0 in the presence of 0, 2.5, 5, 10, 50, and 100 μM dapsone (shown in FIG. 10, traces a-f, respectively). The arrows in traces d and e of FIG. 10 indicate where additional LPO is added to the system. […] Dapsone at 50 μM inhibited nitration by approximately 86%. Given the high concentrations of NaNO2 and H2O2 used in this system, dapsone appears to be a potent blocker of nitration.
# The extent of nitration is expressed as a change in ΔA410 versus control (dapsone omitted) taken as 100% after 10, 30, and 60 minute reactions for LPO, MPO, and EPO nitrating systems, respectively. Results equal the means±SE of at least two measurements. In the LPO system, 100 μM of salbutamol, 3.4 mM of NaNO2, 4 mM of H2O2, and 65 nM of LPO is used. In the MPO system, 50 μM of salbutamol, 5.0 mM of NaNO2, 5 mM of H2O2, and 0.2 U/mL of MPO is used. In the EPO system, 50 μM of salbutamol, 5 mM of NaNO2, 2 mM of H2O2, and 0.075 U/mL of EPO is used. All reactions were carried out in pH 7.0 phosphate buffer containing DMSO (5% v/v). The term “nitrophenols” includes nitrosalbutamol (N-Sal) and salbutamol-derived nitrophenol (N—ArOH).
# EPO = molecular target: T2, EPO (Homo sapiens, UniProt P11678); assay: Nitration of salbutamol by EPO/H2O2/NO2−, A410; type: biochemical; conditions: 50 μM salbutamol, 5 mM NaNO2, 2 mM H2O2, 0.075 U/mL EPO, pH 7.0, 60 min, ΔA410 versus control
# T2 construct: purchased Calbiochem
# T2 sequence (P11678 251-715 limits assumed): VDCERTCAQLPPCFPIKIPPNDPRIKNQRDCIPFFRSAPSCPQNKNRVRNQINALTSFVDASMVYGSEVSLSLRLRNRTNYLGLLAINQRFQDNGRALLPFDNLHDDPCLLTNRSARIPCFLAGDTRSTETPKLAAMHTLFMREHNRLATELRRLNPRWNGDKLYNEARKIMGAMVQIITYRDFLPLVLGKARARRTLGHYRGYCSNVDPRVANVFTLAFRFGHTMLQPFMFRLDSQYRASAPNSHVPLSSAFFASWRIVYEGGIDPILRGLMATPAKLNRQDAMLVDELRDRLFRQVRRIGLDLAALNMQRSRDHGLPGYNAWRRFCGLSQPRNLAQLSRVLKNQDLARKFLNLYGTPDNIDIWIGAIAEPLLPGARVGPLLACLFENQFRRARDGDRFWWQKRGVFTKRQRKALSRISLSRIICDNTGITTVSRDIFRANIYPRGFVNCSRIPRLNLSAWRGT
# T2 sequence (P11678 140-250 limits assumed): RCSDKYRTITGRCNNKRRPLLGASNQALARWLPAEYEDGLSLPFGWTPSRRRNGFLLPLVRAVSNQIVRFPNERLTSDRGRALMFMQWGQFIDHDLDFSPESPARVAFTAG
# Description: as §1
# We also examine the effect of methimazole on nitration catalyzed by MPO and EPO. 50 μM of salbutamol is reacted with 0.2 U/mL MPO, 5 mM NaNO2, and 2.1 mM H2O2 at pH buffer 7.0 in the presence of 0, 25, 50, and 100 μM methimazole (shown in FIG. 9, section B, traces a-d, respectively). In contrast to inhibition of nitration by LPO system, which was irreversible, inhibitory action of methimazole on MPO/H2O2/NO2^− is transitory.
# The extent of nitration is expressed as a change in ΔA410 versus control (dapsone omitted) taken as 100% after 10, 30, and 60 minute reactions for LPO, MPO, and EPO nitrating systems, respectively. […]
SMILES,"Nitration of salbutamol by LPO/H2O2/NO2− (A410 versus time) (LPO; methimazole close to 100 μM (109 μM), 100 μM salbutamol, 73 nM LPO, 3.5 mM NaNO2, 4 mM H2O2, pH 7.0)","Nitrophenols, (%) LPO (LPO; dapsone 2.5 μM, 100 μM salbutamol)","Nitrophenols, (%) LPO (LPO; dapsone 5.0 μM, 100 μM salbutamol)","Nitrophenols, (%) LPO (LPO; dapsone 10.0 μM, 100 μM salbutamol)","inhibition at 50 µM (LPO; dapsone 50 μM, 97 μM salbutamol, 65 nM LPO, 3.4 mM NaNO2, 4 mM H2O2, pH 7.0)","Nitrophenols, (%) LPO (LPO; dapsone 50.0 μM, 100 μM salbutamol)","Nitrophenols, (%) EPO (EPO; dapsone 140 μM)","Nitrophenols, (%) EPO (EPO; dapsone 300 μM)"
"Cn1cc[nH]c1=S [Methimazole, 1-methyl-3H-imidazole-2-thione]",completely prevents,,,,,,,
"Nc1ccc(S(=O)(=O)c2ccc(N)cc2)cc1 [Dapsone, diamino-diphenyl sulfone]",,72.8 ± 2.0%,58.4 ± 1.4%,45.7 ± 2.0%,~86%,14.0 ± 2.7%,57%,34 ± 2%
